Data: US8372831B2, “Isoxazoline linked pyrrolo[2,1-c][1,4]benzodiazepine hybrids as potential anticancer agents and the process for preparation thereof” (Council of Scientific & Industrial Research, priority 2008, dated 2013)

Columns and labels:
SK-OV-3 = assay: NCI SRB cytotoxicity, SK-OV-3 (ovarian); format: cell-based, human; details: 48 hrs exposure
Experimental: (§1) Biological Activity: The in vitro biological activity studies were carried out at the National Cancer Institute, Maryland, USA.
(§2) The C8-linked isoxazoline-PBD hybrids have been tested against sixty human tumour cell lines derived from nine cancer types (leukemia, non-small cell lung cancer, colon cancer, CNS cancer, melanoma, ovarian cancer, renal cancer, prostate cancer and breast cancer) as per NCI protocol. For each compound, dose response curves for individual cell lines have been measured at a minimum of five concentrations at 10 fold dilutions. A protocol of 48 hrs continuous drug exposure has been used, and a sulforhodamine B (SRB) protein assay was used to estimate cell viability or growth. The concentration for 50% cell growth inhibition (GI50), total cell growth inhibition (TGI, 0% growth) and 50% cell death (LC50, […]) compared with the control has been calculated (FIG. 2).
(§3) Compound 5b and 9b have been evaluated for in vitro cytotoxicity in sixty cell lines from nine human cancer types of lung (Hop-62, NCI-H226, NCI-H522), leukemia (K-562, SR), colon (HCT-116, HCT-15, HCC-2998), CNS(SF-539), melanoma (SK-MEL-5, UACC-62, M14), ovarian (IGROV1), renal (A498), prostate (PC3) breast (BT-549, MDA-MB-435, HS578T) origin. The results are expressed as percent of cell growth determined relative to that of untreated control cells (Table 1).

MALME-3M = assay: NCI SRB cytotoxicity, MALME-3M (melanoma); format: cell-based, human; details: 48 hrs exposure
Experimental: as §1, §2, §3

RPMI-8226 = assay: NCI SRB cytotoxicity, RPMI-8226 (leukemia); format: cell-based, human; details: 48 hrs exposure
Experimental: as §1, §2, §3

A549/ATCC = assay: NCI SRB cytotoxicity, A549/ATCC (non-small cell lung); format: cell-based, human; details: Non-smallcell lung, 48 hrs exposure
Experimental: as §1, §2, §3

SR = assay: NCI SRB cytotoxicity, SR (leukemia); format: cell-based, human; details: SR, Leukemia; 48 hrs exposure
Experimental: as §1, §2, §3

M14 = assay: NCI SRB cytotoxicity, M14 (melanoma); format: cell-based, human; details: M14, Melanoma; 48 hrs exposure
Experimental: as §1, §2, §3

CAKI-1 = assay: NCI SRB cytotoxicity, CAKI-1 (renal); format: cell-based, human; details: 48 hrs exposure
Experimental: as §1, §2, §3

MCF7 = assay: NCI SRB cytotoxicity, MCF7 (breast); format: cell-based, human; details: 48 hrs exposure
Experimental: as §1, §2, §3

MDA-MB-468 = assay: NCI SRB cytotoxicity, MDA-MB-468 (breast); format: cell-based, human; details: 48 hrs exposure
Experimental: as §1, §2, §3

NCI-H522 = assay: NCI SRB cytotoxicity, NCI-H522 (non-small cell lung); format: cell-based, human; details: NCI-H522, Non-smallcell lung; 48 hrs exposure
Experimental: as §1, §2, §3

Melanoma = assay: NCI SRB cytotoxicity, melanoma panel; format: cell-based, human; details: average of six to eight different cancer cell lines
Experimental: as §1, §2, §3

SF-539 = assay: NCI SRB cytotoxicity, SF-539 (CNS); format: cell-based, human; details: SF-539, CNS; 48 hrs exposure
Experimental: as §1, §2, §3

UACC-62 = assay: NCI SRB cytotoxicity, UACC-62 (melanoma); format: cell-based, human; details: UACC-62, Melanoma; 48 hrs exposure
Experimental: as §1, §2, §3

IGROV1 = assay: NCI SRB cytotoxicity, IGROV1 (ovarian); format: cell-based, human; details: IGROV1, Ovarian; 48 hrs exposure
Experimental: as §1, §2, §3

K-562 = assay: NCI SRB cytotoxicity, K-562 (leukemia); format: cell-based, human; details: K-562, Leukemia; 48 hrs exposure
Experimental: as §1, §2, §3

[1] = system: sixty human tumour cell lines; assay: NCI in vitro cytotoxicity, sixty human tumour cell lines (SRB); format: cell-based
Experimental: as §1, §2, §3

PC-3 = assay: NCI SRB cytotoxicity, PC-3 (prostate); format: cell-based, human; details: PC-3, Prostate; 48 hrs exposure
Experimental: as §1, §2, §3

HCC-2998 = assay: NCI SRB cytotoxicity, HCC-2998 (colon); format: cell-based, human; details: HCC-2998, Colon; 48 hrs exposure
Experimental: as §1, §2, §3

HOP-92 = assay: NCI SRB cytotoxicity, HOP-92 (non-small cell lung); format: cell-based, human; details: HOP-92, Non-smallcell lung; 48 hrs exposure
Experimental: as §1, §2, §3

NCI-H226 = assay: NCI SRB cytotoxicity, NCI-H226 (non-small cell lung); format: cell-based, human; details: NCI-H226, Non-smallcell lung; 48 hrs exposure
Experimental: as §1, §2, §3

T-47D = assay: NCI SRB cytotoxicity, T-47D (breast); format: cell-based, human; details: 48 hrs exposure
Experimental: as §1, §2, §3

[2] = system: Non small cell lung cancer; assay: NCI SRB cytotoxicity, non-small cell lung cancer panel; format: cell-based, human; details: average of six to eight different cancer cell lines
Experimental: as §1, §2, §3

HCT-15 = assay: NCI SRB cytotoxicity, HCT-15 (colon); format: cell-based, human; details: HCT-15, Colon; 48 hrs exposure
Experimental: as §1, §2, §3

NCI-H460 = assay: NCI SRB cytotoxicity, NCI-H460 (non-small cell lung); format: cell-based, human; details: NCI-H460, Non-smallcell lung; 48 hrs exposure
Experimental: as §1, §2, §3

HS 578T = assay: NCI SRB cytotoxicity, HS 578T (breast); format: cell-based, human; details: HS 578T, Breast; 48 hrs exposure
Experimental: as §1, §2, §3

NCI-H23 = assay: NCI SRB cytotoxicity, NCI-H23 (non-small cell lung); format: cell-based, human; details: NCI-H23, Non-smallcell lung; 48 hrs exposure
Experimental: as §1, §2, §3

Breast = assay: NCI SRB cytotoxicity, breast cancer panel; format: cell-based, human; details: average of six to eight different cancer cell lines
Experimental: as §1, §2, §3

CCRF-CEM = assay: NCI SRB cytotoxicity, CCRF-CEM (leukemia); format: cell-based, human; details: 48 hrs exposure
Experimental: as §1, §2, §3

U251 = assay: NCI SRB cytotoxicity, U251 (CNS); format: cell-based, human; details: 48 hrs exposure
Experimental: as §1, §2, §3

Prostate = assay: NCI SRB cytotoxicity, prostate cancer panel; format: cell-based, human; details: average of six to eight different cancer cell lines
Experimental: as §1, §2, §3

LOX IMVI = assay: NCI SRB cytotoxicity, LOX IMVI (melanoma); format: cell-based, human; details: 48 hrs exposure
Experimental: as §1, §2, §3

UO-31 = assay: NCI SRB cytotoxicity, UO-31 (renal); format: cell-based, human; details: 48 hrs exposure
Experimental: as §1, §2, §3

TK-10 = assay: NCI SRB cytotoxicity, TK-10 (renal); format: cell-based, human; details: 48 hrs exposure
Experimental: as §1, §2, §3

HOP-62 = assay: NCI SRB cytotoxicity, HOP-62 (non-small cell lung); format: cell-based, human; details: HOP-62, Non-smallcell lung; 48 hrs exposure
Experimental: as §1, §2, §3

SNB-75 = assay: NCI SRB cytotoxicity, SNB-75 (CNS); format: cell-based, human; details: 48 hrs exposure
Experimental: as §1, §2, §3

In the case of `COc1ccc(C2CC(c3ccc(OC)c(OC)c3OC)=NO2)cc1OCCCCOc1cc2c(cc1OC)C(=O)N1CCC[C@H]1C=N2` (stereo partly drawn) [Compound 9b, (11aS)-7-(methyloxy)-8-(4-[(2-(methyloxy)-5-3-[2,3,4-tri(methyloxy)phenyl]-4,5-dihydro-5-isoxazolylphenyl)oxy]butyloxy)-2,3,5,11a-tetrahydro-1H-benzo[e]pyrrolo[1,2-a][1,4]diazepin-5-one], the GI50 (SK-OV-3) is reported as 3370 nM, the GI50 (MALME-3M) is reported as 2880 nM and the GI50 (RPMI-8226) is reported as 1430 nM. The GI50 (A549/ATCC) was 2330 nM, the GI50 (SR) was 1120 nM and the GI50 (M14) was 1730 nM. For the same compound, the GI50 (CAKI-1) was 3090 nM, the GI50 (MCF7) was 1750 nM and the GI50 (MDA-MB-468) was 1340 nM. The GI50 (NCI-H522) was 610 nM, the “Log10 LC50” value (Melanoma; 50% lethality) was −5.12 mol/L and the Log10GI50 (Melanoma) was −5.72 mol/L. The GI50 (SF-539) was 1800 nM, the GI50 (UACC-62) was 1520 nM and the GI50 (IGROV1) was 1570 nM. For the same compound, the GI50 (K-562) was 1260 nM, the “Log10 GI50 mean graph midpoint (MG_MID)” value ([1]; human tumour cell lines, mean graph midpoint) was −5.73 and the “Log10 TGI mean graph midpoint (MG_MID)” value ([1]; human tumour cell lines, mean graph midpoint, total cell growth inhibition) was −5.28. The GI50 ([1]; text b111, bound over all cell lines, read-out: GI50 against sixty cell lines in nine cancer cell panels) was under 3540 nM, the GI50 (PC-3) was 580 nM and the GI50 (HCC-2998) was 1580 nM. The GI50 (HOP-92) was 2470 nM, the GI50 (NCI-H226) was 1670 nM and the GI50 (T-47D) was 1310 nM. The “Log10 LC50” value ([2]; 50% lethality) was −4.73 mol/L, the Log10GI50 [2] was −5.70 mol/L and the GI50 (HCT-15) was 2270 nM. For the same compound, the GI50 (NCI-H460) was 1850 nM, the GI50 (HS 578T) was 1100 nM and the GI50 (NCI-H23) was 1830 nM. For the same compound, the “Log10 LC50” value (Breast; 50% lethality) was −4.34 mol/L, the Log10GI50 (Breast) was −5.74 mol/L and the GI50 (CCRF-CEM) was 1410 nM. For the same compound, the GI50 (U251) was 1730 nM, the “Log10 LC50” value (Prostate; 50% lethality) was −4.54 mol/L and the Log10GI50 (Prostate) was −5.92 mol/L. The GI50 (LOX IMVI) was 1470 nM, the GI50 (UO-31) was 2090 nM and the GI50 (TK-10) was 3510 nM. It also gave a GI50 (HOP-62) of 1680 nM and a GI50 (SNB-75) of 1710 nM.
